Earlier results in patent US20140234405A1 (priority 2013, published 2014).
No end group written: not given here.

Columns and labels:
gastrin = conditions: 90 mg/day for 6 years or greater; cited from earlier work
type 2 diabetes = conditions: 12 weeks, cited from earlier work
beta cell mass = conditions: after infusion of gastrin in rats; cited from earlier work
[1] = tested on: human pancreatic ductal tissue; conditions: in vitro, without epidermal growth factor; cited from earlier work

Cc1c(OCC(F)(F)F)ccnc1C[S+]([O-])c1nc2ccccc2[nH]1 (stereo not shown) [Lansoprazole, 1H-Benzimidazole,2-[[[3-methyl-4-(2,2,2-trifluoroethoxy)-2-pyridinyl]methyl]sulfinyl]-2-[[[3-Methyl-4-(2,2,2-trifluoroethoxy)-2-pyridyl]-methyl]sulfinyl]benzimidazole]
gastrin levels relative to normal (gastrin): ~7 fold
safety profile (gastrin): sustained safety profile

COc1ccc2nc([S@@+]([O-])Cc3ncc(C)c(OC)c3C)[nH]c2c1 [esomeprazole]
insulin secretion, glycaemic control, cardiovascular disease biomarkers (type 2 diabetes; patients with type 2 diabetes): did not improve
change in insulin AUC (type 2 diabetes; control group had 16.3% reduction): no decline in insulin AUC
increase in area under the curve (AUC) of gastrin (type 2 diabetes; 20 type 2 diabetes patients, 40 mg): 9 fold

gastrin: gastrointestinal hormone demonstrated to result in new beta cell formation (QGPWLEEEEEAYGWMDF; ends and bridges not checked; UniProt P01350 76-92, looked up)
beta cell mass (beta cell mass): doubling beta cell mass
beta cell neogenesis from human pancreatic ductal tissue [1]: induce beta cell neogenesis
